The assay concerns the target human SSTR4 (Homo sapiens, UniProt P31391). The assay is described as follows: Evaluation of agonist activities using human SSTR4-stably expressing cells (aequorin luminescence). In kind it is cell-based. More on the design: expressed in transfected cells; host or cells: HEK293. The note with it: for SSTR4 agonist activity compared with other compounds: Tables 25 to 27; for EC50: luminescence signal, 1 μmol/L somatostatin taken as 100%. As for the experimental part:
Evaluation of Agonist Activities Using Cells that stably expressing human-derived SSTR4 (human SSTR4-stably expressing cells)
(1) Human SSTR4-Stably Expressing Cells
Human SSTR4-stably expressing cells were prepared, and cultured. Specifically, HEK293 cells, human kidney-derived cells, were used as host cells. By introducing pcDNA3.1 (cat. No. V79020, invitrogen, Carlsbad, Calif., USA) to which human SSTR gene was inserted into HEK293 cells, human SSTR4-stably expressing cell line was obtained. For selection, G418 (cat. No. 16513-84, Nacalai tesque, Japan) was used.
As the culture medium, D-MEM medium (cat. No. 11995, GIBCO, USA), containing 10% FBS and 200 μg/mL G418, was used, the culture was performed in a 225 cm^2 flask (cat. No. 11-006-010, Iwaki, Japan).
At about 80% confluence, the cells were harvested by treating with 20-fold diluted 0.25% Trypsin-EDTA (cat. No. 35554-64, Nacalai, tesque, Japan). The harvested cells were prepared at a reaction medium composed of Hanks Buffer (cat. No. 14065-056, invitrogen, Carlsbad, Calif., USA)/20 mM Hepes (cat. No. 15630-080, invitrogen, Carlsbad, Calif., USA), and 0.1% BSA (cat. No. A7906, Sigma Aldrich, USA) to 70000 cells/mL. Gα16 and apoaequorin were transiently introduced to the harvested cells, and the cells were seeded to a 384 well plate (cat. No. 781090, Greiner, Germany) at about 2000 cells/30 μL/well. On the next day of cell seeding, Coelenterazine H (cat. No. S2011, Promega, USA) was added to each well (10 μL/well) to make a final concentration of 0.5 μmol/L, and the plate was centrifuged. Then, the plate was left at room temperature for 4 hours in shaded state.
(2) Preparation of Test Compounds
DMSO solution of each test compound having 1000-fold larger concentration than the final concentration was prepared. The DMSO solutions were made to have 10-fold concentration than the final concentration with Hanks/20 mmol/L Hepes/0.1% BSA.
(3) Evaluation of Agonist Activity
For detection of luminescence signal due to SSTR4-stimulation, FDSS7000 (manufactured by Hamamatsu Photonics K.K.) was used. To plates having cells and the luminescence substrate, solutions of test compounds were added, then each luminescence signal was measured for 90 seconds, and each relative luminescence unit (RLU) was calculated. Based on luminescence signal from the wells to which a 1 μmol/L somatostatin solution was added taken as 100%, agonist activity of each test compound was evaluated.

Sequence of human SSTR4 (P31391 whole entry): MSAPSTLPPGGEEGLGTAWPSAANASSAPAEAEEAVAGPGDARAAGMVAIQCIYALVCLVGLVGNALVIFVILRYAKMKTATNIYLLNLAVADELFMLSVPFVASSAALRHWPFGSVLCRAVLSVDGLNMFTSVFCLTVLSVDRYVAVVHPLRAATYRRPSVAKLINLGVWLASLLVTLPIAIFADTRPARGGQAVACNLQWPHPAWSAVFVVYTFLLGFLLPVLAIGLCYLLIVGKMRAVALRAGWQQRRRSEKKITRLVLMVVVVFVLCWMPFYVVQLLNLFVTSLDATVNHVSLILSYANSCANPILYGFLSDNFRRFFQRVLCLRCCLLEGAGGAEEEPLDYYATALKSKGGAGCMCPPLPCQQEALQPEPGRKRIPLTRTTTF

What is called EC50 is the concentration that produces a half-maximal response. A higher EC50 goes with a need for much substance. For the compound `C[C@@H]1CC[C@H](C(=O)NC(C)(C)c2cccc3ccccc23)CN1C` (relative stereo) [Example 81], the “SSTR4 agonist activity compared with other compounds” value was “stronger SSTR4 agonist activity” and it took 3.4 nM to reach a half-maximal effect (EC50). `C[C@@H]1CC[C@@H](C(=O)NC(C)(C)c2cccc3ccccc23)CN1C` (relative stereo) [Example 82] showed an EC50 of 1.1 nM. The compound `C[C@@H]1[C@H](C(=O)NC(C)(C)c2cccc3ccccc23)CCCN1C` (relative stereo) [Example 84] came in with an EC50 of 19.8 nM. Regarding `C[C@@H]1[C@@H](C(=O)NC(C)(C)c2cccc3ccccc23)CCCN1C` (relative stereo) [Example 85], the “SSTR4 agonist activity compared with other compounds” value is listed as “stronger SSTR4 agonist activity” and the EC50 turned out to be 1.5 nM. For the compound `Cc1c(Cl)cccc1C(C)(C)NC(=O)[C@@H]1CC[C@H](C)N(C)C1` (relative stereo) [Example 87], the EC50 turned out to be 9.4 nM. Still for that read-out and setting: the value for `Cc1cccc(C(C)(C)NC(=O)[C@@H]2CC[C@H](C)N(C)C2)c1Cl` (relative stereo) [Example 88] was 7.5 nM; that for `CC[C@@H]1CC[C@@H](C(=O)NC(C)(C)c2cccc3ccccc23)CN1C` (relative stereo) [Example 89] was 11.2 nM. As for `CC[C@@H]1CC[C@H](C(=O)NC(C)(C)c2cccc3ccccc23)CN1C` (relative stereo) [Example 90], the “SSTR4 agonist activity compared with other compounds” value is on record as “stronger SSTR4 agonist activity” and the EC50 came out at 3.1 nM. Turning to `C[C@@H]1CC[C@@H](C(=O)NC(C)(C)c2cccc(Cl)c2Cl)CN1C` (relative stereo) [Example 95], a half-maximal response (EC50) required 7.8 nM.

In turn, `C[C@@H]1CC[C@H](C(=O)NC(C)(C)c2cccc(Cl)c2Cl)CN1C` (relative stereo) [Example 96] returned an EC50 of 11.7 nM. Take `CC[C@@H]1CC[C@@H](C(=O)NC(C)(C)c2cccc(Cl)c2Cl)CN1C` (relative stereo) [Example 99]: the EC50 was more than 100 nM. Still for that read-out and setting: next, `COC[C@@H]1CC[C@@H](C(=O)NC(C)(C)c2cccc3ccccc23)CN1C` (relative stereo) [Example 104]: 81.4 nM.

In turn, `COC[C@@H]1CC[C@H](C(=O)NC(C)(C)c2cccc3ccccc23)CN1C` (relative stereo) [Example 105] gave an EC50 of more than 100 nM.

Regarding `CN1CC[C@@H](c2ccccc2)[C@H](C(=O)NC(C)(C)c2cccc(Cl)c2Cl)C1` (relative stereo) [Example 106], the response was half-maximal at 2 nM (EC50).

In turn, `COc1ccccc1C(C)(C)NC(=O)[C@@H]1CN(C)CC[C@@H]1c1ccccc1` (relative stereo) [Example 107] displayed an EC50 of more than 100 nM. Regarding `COc1ccccc1C(C)(C)NC(=O)[C@@H]1CN(C)CC[C@H]1c1ccccc1` (relative stereo) [Example 108], the “SSTR4 agonist activity compared with other compounds” value is reported as “stronger SSTR4 agonist activity” and the EC50 was 2.2 nM.

The compound `CN1CCC[C@H](C(=O)NC(C)(C)c2ccccc2F)C1` [Example 1, (3S)—N-[2-(2-fluorophenyl)propane-2-yl]-1-methylpiperidine-3-carboxyamide] registered an EC50 of 62.7 nM. On the same count and under the same terms, the value for `CN1CCCC(C(=O)NC(c2cccc3ccccc23)C(F)(F)F)C1` (stereo not drawn) [Example 3] was 12.6 nM. `CN1CCCC(C(=O)NC2(c3cccc4ccccc34)CC(F)(F)C2)C1` (stereo not drawn) [Example 4]: the response was half-maximal at 343 nM (EC50). The same measure, in the same setting: the value for `Cc1cccc(C2(NC(=O)C3CCCN(C)C3)CC2)c1C` (stereo not drawn) [Example 5, N-[1-(2,3-dimethylphenyl)cyclopropyl]-1-methylpiperidine-3-carboxamide] was 34.1 nM; that for `Cc1ccc(C(C)(C)NC(=O)C2CCCN(C)C2)cc1C` (stereo not drawn) [Example 6] was 14.2 nM. Compound `Cc1cccc(C(C)(C)NC(=O)C2CCCN(C)C2)c1C` (stereo not drawn) [Example 8] displayed an EC50 of 8.9 nM. For the compound `CN1CCCC(C(=O)NC2(c3cc(Cl)cc(Cl)c3)CCOCC2)C1` (stereo not drawn) [Example 9, N-[4-(3,5-dichlorophenyl)tetrahydro-2H-pyran-4-yl]-1-methylpiperidine-3-carboxamide], it took 43.3 nM to reach a half-maximal effect (EC50). In turn, `CN1CCCC(C(=O)NC(C)(C)c2ccc(Cl)c(Cl)c2)C1` (stereo not drawn) [Example 10] had a 50% effective concentration (EC50) of 24.2 nM. `Cc1cc(Cl)cc(C(C)(C)NC(=O)C2CCCN(C)C2)c1` (stereo not drawn) [Example 11]: the EC50 is 8.4 nM. In turn, `Cc1cc(Cl)ccc1C(C)(C)NC(=O)C1CCCN(C)C1` (stereo not drawn) [Example 12, N-[2-(4-chloro-2-methylphenyl)propane-2-yl]-1-methylpiperidine-3-carboxamide] yielded an EC50 of 9.7 nM. Take `Cc1cccc(C(C)(C)NC(=O)C2CCCN(C)C2)c1Cl` (stereo not drawn) [Example 13]: the “SSTR4 agonist activity compared with other compounds” value is reported as “stronger SSTR4 agonist activity” and the EC50 worked out at 3.7 nM. As for `CN1CCC[C@H](C(=O)NC(C)(C)c2cccc(Cl)c2Cl)C1` [Example 19, (3S)—N-[2-(2,3-dichlorophenyl)propane-2-yl]-1-methylpiperidine-3-carboxamide], the “SSTR4 agonist activity compared with other compounds” value is on record as “stronger SSTR4 agonist activity” and the EC50 worked out at 1.8 nM. In turn, `CN1CCC[C@H](C(=O)NC(C)(C)c2ccc(Cl)c(Cl)c2)C1` [Example 22] showed an EC50 of 10.9 nM.

In the case of `Cc1cccc(C(C)(C)NC(=O)[C@H]2CCCN(C)C2)c1C` [Example 23, (3S)—N-[2-(2,3-dimethylphenyl)propane-2-yl]-1-methylpiperidine-3-carboxamide], a half-maximal response (EC50) required 7.4 nM. The compound `Cc1cc(C)cc(C(C)(C)NC(=O)[C@H]2CCCN(C)C2)c1` [Example 25] returned an EC50 of 15.9 nM.

`Cc1cccc(C(C)(C)NC(=O)[C@H]2CCCN(C)C2)c1Cl` [Example 26, (3S)—N-[2-(2-chloro-3-methylphenyl)propane-2-yl]-1-methylpiperidine-3-carboxamide]: the “SSTR4 agonist activity compared with other compounds” value was “stronger SSTR4 agonist activity” and a half-maximal effect (EC50) was put at 2.2 nM. For the compound `Cc1cc(Cl)ccc1C(C)(C)NC(=O)[C@H]1CCCN(C)C1` [Example 28], a half-maximal response (EC50) required 12.2 nM.

With `Cc1cc(Cl)cc(C(C)(C)NC(=O)[C@H]2CCCN(C)C2)c1` [Example 29, (3S)—N-[2-(3-chloro-5-methylphenyl)propane-2-yl]-1-methylpiperidine-3-carboxamide], a half-maximal response (EC50) required 5.3 nM. As to `COc1cc(Cl)ccc1C(C)(C)NC(=O)[C@H]1CCCN(C)C1` [Example 30, (3S)—N-[2-(4-chloro-2-methoxylphenyl)propane-2-yl]-1-methylpiperidine-3-carboxamide], the “SSTR4 agonist activity compared with other compounds” value is on record as “stronger SSTR4 agonist activity” and the EC50 is 1.5 nM. For `CCc1cc(Cl)ccc1C(C)(C)NC(=O)[C@H]1CCCN(C)C1` [Example 31, (3S)—N-[2-(4-chloro-2-ethylphenyl)propane-2-yl]-1-methylpiperidine-3-carboxamide], the “SSTR4 agonist activity compared with other compounds” value was “stronger SSTR4 agonist activity” and the EC50 came out at 1.4 nM.

For the compound `CCc1ccc(C(C)(C)NC(=O)[C@H]2CCCN(C)C2)c(CC)c1` [Example 32, (3S)—N-[2-(2,4-diethylphenyl)propane-2-yl]-1-methylpiperidine-3-carboxamide], the EC50 stood at 4 nM. Still for that read-out and setting: next, `CC(C)c1cc(Cl)ccc1C(C)(C)NC(=O)[C@H]1CCCN(C)C1` [Example 33]: more than 100 nM.

`CC(C)Cc1cc(Cl)ccc1C(C)(C)NC(=O)[C@H]1CCCN(C)C1` [Example 34] came in with an EC50 of more than 100 nM. In turn, `Cc1ccc(C(C)(C)NC(=O)[C@H]2CCCN(C)C2)c(C)c1` [Example 35, (3S)—N-[2-(2,4-dimethylphenyl)propane-2-yl]-1-methylpiperidine-3-carboxamide] came in with an EC50 of 3.3 nM. As for `CN1CCC[C@H](C(=O)NC(C)(C)c2ccc(Cl)cc2-c2ccccc2)C1` [Example 36], the EC50 was more than 100 nM. As to `Cc1ccc(C(C)(C)NC(=O)[C@H]2CCCN(C)C2)c(Cl)c1` [Example 37, (3S)—N-[2-(2-chloro-4-methylphenyl)propane-2-yl]-1-methylpiperidine-3-carboxamide], the “SSTR4 agonist activity compared with other compounds” value is “stronger SSTR4 agonist activity” and the EC50 worked out at 2.5 nM.

Take `Cc1ccc(Cl)c(C(C)(C)NC(=O)[C@H]2CCCN(C)C2)c1` [Example 38, (3S)—N-[2-(2-chloro-5-methylphenyl)propane-2-yl]-1-methylpiperidine-3-carboxamide]: the midpoint of the response, the EC50, lay at 5 nM. Take `CN1CCC[C@H](C(=O)NC(C)(C)c2ccccc2)C1` [Example 39]: the concentration giving a half-maximal response (EC50) was more than 100 nM.

These data come from patent US20160221948A1, “NITROGEN-CONTAINING SATURATED HETEROCYCLIC COMPOUND” (SUMITOMO CHEMICAL COMPANY, LIMITED, priority 2013, published 2016).
